Measured values taken from ChEMBL document CHEMBL4402562, “Discovery of Novel Peptidomimetic Boronate ClpP Inhibitors with Noncanonical Enzyme Mechanism as Potent Virulence Blockers in Vitro and in Vivo” (J Med Chem, 2020).
Calls of active or inactive are those of the source. The calls are words filed in the database; no cut-off is given here.

Test system: Staphylococcus aureus
Test: Inhibition of Hla expression in methicillin-resistant Staphylococcus aureus ATCC 33591 at 16 uM by Western blot analysis
Assay type: functional, organism-based

## CC(C)C[C@H](NC(=O)[C@H](Cc1c[nH]c2ccccc12)NC(=O)c1cc(Cl)ccc1Cl)B(O)O
  inhibition: Active
